# Measurements published in patent publication US7531320B2, “Modulation of β-catenin/TCF-activated transcription” (priority 2003, dated 2009).
# Assays:
# p300/β-catenin complex [1] = target: T1, p300/β-catenin complex (Homo sapiens, UniProt Q09472); assay: Co-immunoprecipitation of β-catenin with p300 in SW480 cells; type: cell-based; details: SW480 cells, 5 or 10 μM, 24 hours
# T1 construct: endogenous in cells; host or cells: SW480
# Experimental: (§1) FIG. 3. COMPOUND 1 disrupts the β-catenin/CBP complex but not the p300/β-catenin complex. • A. Full-length Xenopus laevis β-catenin (1.1, 2.2, and 3.3 μg) or murine CBP (0.14, 0.28, 0.55, 1.1, and 2.2 μg) plasmids were cotransfected in SW480 cells along with the β-catenin/TCF (1.1 μg) reporter gene construct. Empty pcDNA3 vector was used to equalize the amount of DNA used in each reaction. Dual luciferase assays were performed 24 hours post COMPOUND 1 treatment. All experiments were performed in duplicate and values plotted as means +/−standard deviation. • B. COMPOUND 1 competes with β-catenin for CBP. SW480 cells were treated with 5 or 10 μM of COMPOUND 1 or control (0.5% DMSO). 24 hours post treatment, lysates were incubated with beads coated with either control the antibody, or anti-CBP, or anti-p300 antibodies. Co-immunoprecipitated proteins were subjected to gel electrophoresis and immunoblotting using anti-β-catenin antibodies. The arrows point to the immunoprecipitated β-catenin (doublets). • C. CBP (1-111) is the minimal region of interaction with β-catenin. SW480 cells transfected with a CBP deletion series were subjected to immunoprecipitation using anti-β-catenin antibodies coated on Protein A-agarose beads. The immune complexes were washed and subjected to gel electrophoresis followed by immunoblotting using anti-His antibodies. […]
# T1 sequence (Q09472 2-2414, one chain of several): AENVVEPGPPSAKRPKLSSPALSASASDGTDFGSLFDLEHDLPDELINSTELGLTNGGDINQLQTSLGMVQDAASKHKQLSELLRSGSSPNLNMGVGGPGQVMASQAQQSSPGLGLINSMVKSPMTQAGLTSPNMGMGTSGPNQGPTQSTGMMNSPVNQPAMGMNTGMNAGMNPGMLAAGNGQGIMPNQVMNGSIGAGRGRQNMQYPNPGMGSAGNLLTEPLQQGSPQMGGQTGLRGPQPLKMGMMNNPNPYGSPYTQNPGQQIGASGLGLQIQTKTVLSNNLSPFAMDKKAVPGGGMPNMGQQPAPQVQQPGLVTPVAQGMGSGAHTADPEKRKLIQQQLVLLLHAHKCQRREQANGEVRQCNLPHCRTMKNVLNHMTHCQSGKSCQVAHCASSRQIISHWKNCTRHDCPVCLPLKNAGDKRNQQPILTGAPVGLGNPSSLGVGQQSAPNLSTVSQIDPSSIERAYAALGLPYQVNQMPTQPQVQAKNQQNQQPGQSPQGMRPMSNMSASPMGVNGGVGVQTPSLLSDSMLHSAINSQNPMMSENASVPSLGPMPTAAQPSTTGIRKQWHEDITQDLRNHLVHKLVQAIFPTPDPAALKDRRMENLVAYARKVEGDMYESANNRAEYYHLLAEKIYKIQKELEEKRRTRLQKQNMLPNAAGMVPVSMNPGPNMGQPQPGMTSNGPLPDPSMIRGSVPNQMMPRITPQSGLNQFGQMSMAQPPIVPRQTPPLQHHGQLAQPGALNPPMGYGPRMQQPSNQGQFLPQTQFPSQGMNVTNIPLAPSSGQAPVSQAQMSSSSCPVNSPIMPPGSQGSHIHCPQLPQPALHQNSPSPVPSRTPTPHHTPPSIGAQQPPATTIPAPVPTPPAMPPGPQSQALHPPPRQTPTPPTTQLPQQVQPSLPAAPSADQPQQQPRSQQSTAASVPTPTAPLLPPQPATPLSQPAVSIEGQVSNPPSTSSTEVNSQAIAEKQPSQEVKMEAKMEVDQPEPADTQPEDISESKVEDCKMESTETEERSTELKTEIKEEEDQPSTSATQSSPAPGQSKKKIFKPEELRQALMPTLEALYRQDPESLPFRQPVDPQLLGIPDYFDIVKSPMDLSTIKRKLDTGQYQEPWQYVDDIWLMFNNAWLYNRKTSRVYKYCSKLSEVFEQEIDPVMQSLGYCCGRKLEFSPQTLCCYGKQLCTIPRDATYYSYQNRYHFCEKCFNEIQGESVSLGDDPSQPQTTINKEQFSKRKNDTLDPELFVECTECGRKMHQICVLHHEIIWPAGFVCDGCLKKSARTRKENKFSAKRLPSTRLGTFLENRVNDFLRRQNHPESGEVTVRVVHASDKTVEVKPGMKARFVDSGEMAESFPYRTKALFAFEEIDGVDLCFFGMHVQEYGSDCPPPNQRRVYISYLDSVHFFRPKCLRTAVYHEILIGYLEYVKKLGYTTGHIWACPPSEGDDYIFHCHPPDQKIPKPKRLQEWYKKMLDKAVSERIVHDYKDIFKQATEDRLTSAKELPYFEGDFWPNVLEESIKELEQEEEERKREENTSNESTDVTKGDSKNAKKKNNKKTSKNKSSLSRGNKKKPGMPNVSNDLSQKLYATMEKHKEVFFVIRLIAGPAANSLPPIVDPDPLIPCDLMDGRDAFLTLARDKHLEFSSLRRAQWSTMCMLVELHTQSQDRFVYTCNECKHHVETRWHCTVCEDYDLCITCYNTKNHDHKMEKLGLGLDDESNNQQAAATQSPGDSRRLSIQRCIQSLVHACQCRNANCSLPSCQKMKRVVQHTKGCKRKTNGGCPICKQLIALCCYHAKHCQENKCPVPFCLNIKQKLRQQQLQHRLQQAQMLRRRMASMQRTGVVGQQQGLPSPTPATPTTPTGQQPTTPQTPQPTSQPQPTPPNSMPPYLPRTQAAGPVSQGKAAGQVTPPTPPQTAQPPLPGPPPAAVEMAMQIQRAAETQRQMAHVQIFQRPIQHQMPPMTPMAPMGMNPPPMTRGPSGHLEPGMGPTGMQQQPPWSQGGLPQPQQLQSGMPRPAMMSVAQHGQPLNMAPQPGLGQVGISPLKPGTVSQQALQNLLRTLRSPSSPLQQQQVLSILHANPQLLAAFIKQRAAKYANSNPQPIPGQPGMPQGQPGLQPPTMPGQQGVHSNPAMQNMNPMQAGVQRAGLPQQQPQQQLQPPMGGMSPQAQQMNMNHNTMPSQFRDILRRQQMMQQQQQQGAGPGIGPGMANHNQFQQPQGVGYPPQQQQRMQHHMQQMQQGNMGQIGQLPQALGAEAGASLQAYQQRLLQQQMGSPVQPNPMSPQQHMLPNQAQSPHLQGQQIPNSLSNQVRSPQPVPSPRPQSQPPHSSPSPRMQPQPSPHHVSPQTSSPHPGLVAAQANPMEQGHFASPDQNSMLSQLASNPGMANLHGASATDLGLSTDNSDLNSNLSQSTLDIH
# p300/β-catenin complex [2] = target: T2, p300/β-catenin complex (Homo sapiens, UniProt Q09472); assay: as above; type: cell-based; details: p300 (1-111), (1-211), (1-351), 50 μM COMPOUND 1
# T2 construct: endogenous in cells; host or cells: SW480
# Experimental: as §1
# T2 sequence (Q09472 1-111, one chain of several): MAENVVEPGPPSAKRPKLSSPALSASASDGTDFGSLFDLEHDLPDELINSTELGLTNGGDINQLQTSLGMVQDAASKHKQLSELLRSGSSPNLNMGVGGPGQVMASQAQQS
# HCT116 cells = assay: FACS cell cycle analysis (propidium iodide), HCT116 cells; type: cell-based, human; details: 25 μM, 24 hours
# Experimental: FIG. 6. • A. COMPOUND 1 arrests cells in G1. FACS analysis was performed on SW480 (lower panel) and HCT116 (upper panel) cells treated for 24 hours with either COMPOUND 1 (25 μM) (right) or control (0.5% DMSO (left). 5.5×10^6 cells were fixed and stained with propidium iodide (PI). G0/G1, S, and G2/M are indicated by arrows. • B. COMPOUND 1 selectively activates caspases in colon carcinoma cell lines. SW480 and HCT116 (left graph) cells (10^5) along with the normal colonocytes, CCD18Co (right graph) were treated with either control (0.5% DMSO) or COMPOUND 1 (25 μM). 24 hours post treatment, cells were lysed and the caspase-3/7 enzymatic activities were measured. Relative fluorescence units (RFU) were calculated by subtracting the unit values of the blank (control, without cells) from the treated samples (COMPOUND 1 or control) and plotted.
# For FACS analysis, approx. 5×10^6 cells from PNRI-treated or vehicle-treated were fixed with 70% chilled ethanol and stored at −20° C. for at least 30 minutes. […] 10,000 stained cells for each sample were acquired using Beckman Coulter EPICS XL-MCL Flow Cytometry and the percentage of cells in different phase of the cell cycle was determined by Expo32 ADC software (Coulter Corporation, Miami, Fla., 33196). […]
structure (smiles),measurement,setting,value
O=C1C(Cc2ccc(O)cc2)N2C(=O)CCN(C(=O)NCc3ccccc3)C2CN1Cc1cccc2ccccc12 (stereo not drawn) [COMPOUND 1],Binding of β-catenin to p300 (immunoprecipitation),p300/β-catenin complex [1],did not interfere
same,p300 fragments binding to immunoprecipitated β-catenin in presence of excess COMPOUND 1,p300/β-catenin complex [2],had no effect
same,Cell cycle distribution (DNA content by FACS),HCT116 cells,increased accumulation at G1/S-phase
